Measurements: publication PMC13544220, “Glycemic and bodyweight effects of GIPR coding variation reflect differences in surface expression and intrinsic functional impairment” (Science Advances, 2026)

Key:
[1] = tested on: wild-type and variant SNAP-GIPR in wild-type mouse islets; experiment: Insulin secretion from wild-type mouse islets transduced with GIPR adenoviruses; type: cell-based; conditions: 11 mM glucose, particularly E354Q and R190Q, not significant
Protocol: Isolated islets used for insulin secretion assays were treated in 1.5-ml microcentrifuge tubes. Eight-ten islets were used per well with two-three technical replicates per condition. […] At the end of the treatment, supernatants containing the secreted insulin or glucagon were collected, centrifuged at 1000g for 5 min, and transferred to fresh tubes. […] The lysates were sonicated 3× for 10 s in a water bath and centrifuged at 10,000g for 10 min, and the supernatants were collected. […] GraphPad Prism 9.0 was used for the generation of the standard curve and sample concentration extrapolation. The total insulin or glucagon content was calculated by adding the secreted insulin to the insulin content of the lysates, and secretion was reported as the percentage release of total. The percent secretion of islets treated with agonist was normalized to that of islets treated with vehicle and reported as a fold change.

[2] = tested on: wild-type and variant SNAP-GIPR in Gipr-/- mouse islets; experiment: Glucagon secretion from Gipr-/- mouse islets transduced with GIPR adenoviruses; type: cell-based; conditions: Gipr-/- islets, 0.5 mM glucose; each variant vs wild type
Protocol: Isolated islets used for insulin secretion assays were treated in 1.5-ml microcentrifuge tubes. Eight-ten islets were used per well with two-three technical replicates per condition. […] At the end of the treatment, supernatants containing the secreted insulin or glucagon were collected, centrifuged at 1000g for 5 min, and transferred to fresh tubes. […] The lysates were sonicated 3× for 10 s in a water bath and centrifuged at 10,000g for 10 min, and the supernatants were collected. The samples were stored at −20°C until the insulin or glucagon concentrations were determined using an Insulin Ultra-Sensitive HTRF Assay kit (62IN2PEG, Revvity) or an HTRF Glucagon Detection Kit (62CGLPEG, Revvity) respectively, according to the manufacturer’s instructions. GraphPad Prism 9.0 was used for the generation of the standard curve and sample concentration extrapolation. The total insulin or glucagon content was calculated by adding the secreted insulin to the insulin content of the lysates, and secretion was reported as the percentage release of total. The percent secretion of islets treated with agonist was normalized to that of islets treated with vehicle and reported as a fold change.

[3] = tested on: wild-type and variant SNAP-GIPR; experiment: cAMP concentration response (HTRF) in AD293 cells, SNAP-GIPR; type: cell-based, human
Protocol: (Imperial College London): 24 hours before the experiment, AD293 cells were reverse transfected with the GIPR variant or wild-type plasmids using Lipofectamine 2000 in 12-well plates. All variants were tested in parallel on each occasion to control for transfection efficiency differences between experiments. […] Data were fit using a three-parameter logistic model using GraphPad Prism 10.

## CC[C@H](C)[C@H](NC(=O)[C@H](CO)NC(=O)[C@H](Cc1ccc(O)cc1)NC(=O)[C@H](CC(=O)O)NC(=O)[C@H](CO)NC(=O)[C@@H](NC(=O)[C@H](Cc1ccccc1)NC(=O)[C@@H](NC(=O)CNC(=O)[C@H](CCC(=O)O)NC(=O)[C@H](C)NC(=O)[C@@H](N)Cc1ccc(O)cc1)[C@@H](C)O)[C@@H](C)CC)C(=O)N[C@@H](C)C(=O)N[C@@H](CCSC)C(=O)N[C@@H](CC(=O)O)C(=O)N[C@@H](CCCCN)C(=O)N[C@H](C(=O)N[C@@H](Cc1c[nH]cn1)C(=O)N[C@@H](CCC(N)=O)C(=O)N[C@@H](CCC(N)=O)C(=O)N[C@@H](CC(=O)O)C(=O)N[C@@H](Cc1ccccc1)C(=O)N[C@H](C(=O)N[C@@H](CC(N)=O)C(=O)N[C@@H](Cc1c[nH]c2ccccc12)C(=O)N[C@@H](CC(C)C)C(=O)N[C@@H](CC(C)C)C(=O)N[C@@H](C)C(=O)N[C@@H](CCC(N)=O)C(=O)N[C@@H](CCCCN)C(=O)NCC(=O)N[C@@H](CCCCN)C(=O)N[C@@H](CCCCN)C(=O)N[C@@H](CC(N)=O)C(=O)N[C@@H](CC(=O)O)C(=O)N[C@@H](Cc1c[nH]c2ccccc12)C(=O)N[C@@H](CCCCN)C(=O)N[C@@H](Cc1c[nH]cn1)C(=O)N[C@@H](CC(N)=O)C(=O)N[C@H](C(=O)N[C@H](C(=O)N[C@@H](CCC(N)=O)C(=O)O)[C@@H](C)O)[C@@H](C)CC)C(C)C)[C@@H](C)CC [GIP, glucose-dependent insulinotropic polypeptide, reference compound]
[1]
  GIP-induced insulin secretion: tendency toward reduced responses to GIP stimulation
[2]
  glucagon release: apparent but nonstatistically significant reduction in glucagon release
[3]; AD293, SNAP-GIPR E288G, R190Q, R101H, 0.1% BSA
  cAMP signaling (∆LogEmax/EC50): markedly reduced responses
[3]; AD293, SNAP-GIPR R101H and R190Q
  cAMP agonism: very weak agonists
[3]; AD293, SNAP-GIPR S64A, R136W, R217L, vs wild-type
  cAMP signaling (∆LogEmax/EC50): moderately reduced
